Source: patent US6737383B1, “Herbicidal oxadiazolidines” (priority 1999, dated 2004)

Assays:
[1] = system: bedstraw; experiment: Test B pre/postemergence bedstraw; assay type: in vivo, Galium aparine; settings: Postemergence, Rate 500 g/ha; scale of 0 to 10 where 0 is no effect and 10 is complete control
How it was run: (§1)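 Herbicidal effect was estimated by eye on a ten-point control scale after plants spent twelve to sixteen days in a greenhouse following soil or foliar treatment. Foliar sprays targeted plants at one to four leaves; all doses were formulated in a non-phytotoxic solvent with surfactant.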

[2] = system: blackgrass; experiment: Test B pre/postemergence blackgrass; assay type: in vivo, Alopecurus myosuroides
How it was run: as §1

[3] = system: surinam grass; experiment: Test B pre/postemergence surinam grass; assay type: in vivo, Brachiaria decumbens
How it was run: as §1

[4] = system: cocklebur; experiment: Test B pre/postemergence cocklebur; assay type: in vivo, Xanthium strumarium
How it was run: as §1

[5] = system: corn; experiment: Test B pre/postemergence corn; assay type: in vivo, Zea mays
How it was run: as §1

[6] = system: crabgrass; experiment: Test B pre/postemergence crabgrass; assay type: in vivo, Digitaria sanguinalis
How it was run: as §1

[7] = system: giant foxtail; experiment: Test B pre/postemergence giant foxtail; assay type: in vivo, Setaria faberii
How it was run: as §1

[8] = system: morningglory; experiment: Test B pre/postemergence morningglory; assay type: in vivo, Ipomoea hederacea
How it was run: as §1

[9] = system: pigweed; experiment: Test B pre/postemergence pigweed; assay type: in vivo, Amaranthus retroflexus
How it was run: as §1

[10] = system: rape; experiment: Test B pre/postemergence rape; assay type: in vivo, Brassica napus
How it was run: as §1

[11] = system: soybean; experiment: Test B pre/postemergence soybean; assay type: in vivo, Glycine max
How it was run: as §1

[12] = system: sugar beet; experiment: Test B pre/postemergence sugar beet; assay type: in vivo, Beta vulgaris
How it was run: as §1

[13] = system: velvetleaf; experiment: Test B pre/postemergence velvetleaf; assay type: in vivo, Abutilon theophrasti
How it was run: as §1

[14] = system: wheat; experiment: Test B pre/postemergence wheat; assay type: in vivo, Triticum aestivum
How it was run: as §1

[15] = system: wild oat; experiment: Test B pre/postemergence wild oat; assay type: in vivo, Avena fatua
How it was run: as §1

[16] = system: purple nutsedge; experiment: Test B pre/postemergence purple nutsedge; assay type: in vivo, Cyperus rotundus
How it was run: as §1

[17] = system: rice; experiment: Test B flood test rice; assay type: in vivo, Oryza sativa; settings: flood test species
How it was run: (§2)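 Each value is a visual injury score relative to controls, with 10 meaning complete control and 0 no effect. Evaluation took place twelve to sixteen days after the 2-leaf-stage plants were treated and kept in the greenhouse.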

[18] = system: smallflower flatsedge; experiment: Test B flood test smallflower flatsedge; assay type: in vivo, Cyperus difformis; settings: flood test species
How it was run: as §2

[19] = system: duck salad; experiment: Test B flood test duck salad; assay type: in vivo, Heteranthera limosa; settings: flood test species
How it was run: as §2

[20] = system: bamyardgrass; experiment: Test B flood test barnyardgrass; assay type: in vivo, Echinochloa crus-galli; settings: flood test species
How it was run: as §2

[21] = Postemergence, Rate 125 g/ha, scale 0 to 10, 0 is no effect, 10 is complete control
[22] = Postemergence, Rate 250 g/ha, scale 0 to 10, 0 is no effect, 10 is complete control
[23] = Postemergence, Rate 500 g/ha, scale of 0 to 10 where 0 is no effect and 10 is complete control
[24] = Preemergence, Rate 62 g/ha, scale 0 to 10 (0 no effect, 10 complete control)
[25] = Preemergence, Rate 125 g/ha, scale of 0 to 10 where 0 is no effect and 10 is complete control
[26] = Preemergence, Rate 250 g/ha, scale of 0 to 10 where 0 is no effect and 10 is complete control
[27] = Preemergence, Rate 500 g/ha, scale 0 to 10, 0 is no effect, 10 is complete control
[28] = Rate 62 g/ha, Postemergence, scale of 0 to 10 where 0 is no effect and 10 is complete control
[29] = Preemergence, Rate 250 g/ha, scale 0 to 10, 0 is no effect, 10 is complete control
[30] = Rate 62 g/ha, Pre-emergence, visual evaluation after twelve to sixteen days
[31] = Rate 125 g/ha, under heading Pre-emergence, visual evaluation after twelve to sixteen days
[32] = Rate 500 g/ha, Pre-emergence, scale 0 to 10 (0 no effect, 10 complete control)

## CC(C)Cn1c(=O)on(C(=O)N(c2ccccc2)C(C)C)c1=O [Compound 410]
[1]
  Bedstraw plant response rating: 7
[2]; [21]
  Plant response rating, Blackgrass: 8
[2]; [22]
  Plant response rating, Blackgrass: 9
[2]; [23]
  Blackgrass plant response rating: 9
[2]; [24]
  Plant response rating, Blackgrass: 3
[2]; [25]
  Plant response rating, Blackgrass: 8
[2]; [26]
  Blackgrass plant response rating: 8
[2]; [27]
  Blackgrass plant response rating: 10
[3]; [21]
  Plant response rating, B. signalgrass: 0
[3]; [22]
  Plant response rating, B. signalgrass: 5
[3]; [23]
  B. signalgrass plant response rating: 7
[3]; [24]
  Plant response rating, B. signalgrass: 1
[3]; [25]
  Plant response rating, B. signalgrass: 5
[3]; [26]
  B. signalgrass plant response rating: 7
[3]; Preemergence, Rate 500 g/ha, scale of 0 to 10 where 0 is no effect and 10 is complete control
  B. signalgrass plant response rating: 10
[3]; [28]
  B. signalgrass plant response rating: 0
[4]; [21]
  Plant response rating, Cocklebur: 0
[4]; [22]
  Plant response rating, Cocklebur: 0
[4]; [23]
  Cocklebur plant response rating: 1
[4]; [24]
  Plant response rating, Cocklebur: 0
[4]; [25]
  Plant response rating, Cocklebur: 0
[4]; [29]
  Cocklebur plant response rating: 0
[4]; [27]
  Cocklebur plant response rating: 0
[4]; [28]
  Cocklebur plant response rating: 0
[5]; [21]
  Plant response rating, Corn: 0
[5]; [22]
  Plant response rating, Corn: 0
[5]; [23]
  Corn plant response rating: 3
[5]; [24]
  Plant response rating, Corn: 0
[5]; [25]
  Plant response rating, Corn: 0
[5]; [29]
  Corn plant response rating: 4
[5]; [27]
  Corn plant response rating: 9
[5]; [28]
  Corn plant response rating: 0
[6]; [21]
  Plant response rating, Crabgrass: 4
[6]; [22]
  Plant response rating, Crabgrass: 8
[6]; [23]
  Crabgrass plant response rating: 10
[6]; [24]
  Plant response rating, Crabgrass: 7
[6]; [25]
  Plant response rating, Crabgrass: 9
[6]; [29]
  Crabgrass plant response rating: 10
[6]; [27]
  Crabgrass plant response rating: 10
[6]; [28]
  Crabgrass plant response rating: 4
[7]; [21]
  Plant response rating, Giant foxtail: 9
[7]; [22]
  Plant response rating, Giant foxtail: 9
[7]; [23]
  Giant foxtail plant response rating: 9
[7]; [24]
  Plant response rating, Giant foxtail: 9
[7]; [25]
  Plant response rating, Giant foxtail: 9
[7]; [29]
  Giant foxtail plant response rating: 10
[7]; [27]
  Giant foxtail plant response rating: 10
[7]; [28]
  Giant foxtail plant response rating: 8
[8]; [22]
  Plant response rating, Morningglory: 8
[8]; [23]
  Morningglory plant response rating: 8
[8]; [24]
  Plant response rating, Morningglory: 0
[8]; [25]
  Plant response rating, Morningglory: 0
[8]; [29]
  Morningglory plant response rating: 0
[8]; [27]
  Morningglory plant response rating: 0
[9]; [22]
  Plant response rating, Redroot pigweed: 0
[9]; [23]
  Redroot pigweed plant response rating: 2
[9]; [24]
  Plant response rating, Redroot pigweed: 0
[9]; [25]
  Plant response rating, Redroot pigweed: 0
[9]; [29]
  Redroot pigweed plant response rating: 2
[9]; [27]
  Redroot pigweed plant response rating: 8
[10]; [22]
  Plant response rating, Rape: 7
[10]; [23]
  Rape plant response rating: 7
[10]; [24]
  Plant response rating, Rape: 0
[10]; [25]
  Plant response rating, Rape: 0
[10]; [29]
  Rape plant response rating: 2
[10]; [27]
  Rape plant response rating: 8
[11]; [22]
  Plant response rating, Soybean: 5
[11]; [23]
  Soybean plant response rating: 6
[11]; [24]
  Plant response rating, Soybean: 0
[11]; [25]
  Plant response rating, Soybean: 0
[11]; [29]
  Soybean plant response rating: 0
[11]; [27]
  Soybean plant response rating: 3
[12]; [22]
  Plant response rating, Sugarbeets: 7
[12]; [23]
  Sugarbeets plant response rating: 8
[12]; [24]
  Plant response rating, Sugarbeets: 0
[12]; [25]
  Plant response rating, Sugarbeets: 0
[12]; [29]
  Sugarbeets plant response rating: 0
[12]; [27]
  Sugarbeets plant response rating: 0
[13]; [22]
  Plant response rating, Velvetleaf: 0
[13]; [23]
  Velvetleaf plant response rating: 0
[13]; [24]
  Plant response rating, Velvetleaf: 3
[13]; [25]
  Plant response rating, Velvetleaf: 4
[13]; [29]
  Velvetleaf plant response rating: 6
[13]; [27]
  Velvetleaf plant response rating: 8
[14]; [23]
  Wheat plant response rating: 4
[14]; [24]
  Plant response rating, Wheat: 0
[14]; [25]
  Plant response rating, Wheat: 3
[14]; [29]
  Wheat plant response rating: 7
[14]; [27]
  Wheat plant response rating: 8
[15]; [23]
  Wild oats plant response rating: 5
[15]; [24]
  Plant response rating, Wild oats: 3
[15]; [25]
  Plant response rating, Wild oats: 6
[15]; [29]
  Wild oats plant response rating: 7
[15]; [27]
  Wild oats plant response rating: 10
[16]; [22]
  Plant response rating, Nutsedge: 0
[16]; [23]
  Nutsedge plant response rating: 0
[16]; [24]
  Plant response rating, Nutsedge: 0
[16]; [25]
  Plant response rating, Nutsedge: 0
[16]; [29]
  Nutsedge plant response rating: 0
[17]; [30]
  Plant response rating, Rice (0 to 10 scale, 0 is no effect, 10 is complete control): 0
[17]; [31]
  Rice plant response rating (0 to 10 scale, 0 is no effect, 10 is complete control): 0
[17]; [32]
  Rice plant response rating: 5
[18]; [30]
  Plant response rating, S. Flatsedge (0 to 10 scale, 0 is no effect, 10 is complete control): 3
[18]; [31]
  S. Flatsedge plant response rating (0 to 10 scale, 0 is no effect, 10 is complete control): 3
[18]; [32]
  S. Flatsedge plant response rating: 9
[19]; [30]
  Plant response rating, Ducksalad (0 to 10 scale, 0 is no effect, 10 is complete control): 0
[19]; [31]
  Ducksalad plant response rating (0 to 10 scale, 0 is no effect, 10 is complete control): 0
[19]; [32]
  Ducksalad plant response rating: 2
[20]; [30]
  Plant response rating, Barnyardgrass (0 to 10 scale, 0 is no effect, 10 is complete control): 0
[20]; [31]
  Barnyardgrass plant response rating (0 to 10 scale, 0 is no effect, 10 is complete control): 4
[20]; [32]
  Barnyardgrass plant response rating: 9
